Measured values reported in ChEMBL document CHEMBL1127104, “L-708,474: The C5-cyclohexyl analogue of L-365,260, a selective high affinity ligand for the CCKB/gastrin receptor” (Bioorg Med Chem Lett, 1993).

What follows are compounds tested against T1, Cholecystokinin receptor type A (Rattus norvegicus, UniProt P30551) (assay: In vitro test for inhibition of [125I]CCK binding to Cholecystokinin type A receptor from rat pancreatic tissues was determined).
T1 sequence (P30551 whole entry): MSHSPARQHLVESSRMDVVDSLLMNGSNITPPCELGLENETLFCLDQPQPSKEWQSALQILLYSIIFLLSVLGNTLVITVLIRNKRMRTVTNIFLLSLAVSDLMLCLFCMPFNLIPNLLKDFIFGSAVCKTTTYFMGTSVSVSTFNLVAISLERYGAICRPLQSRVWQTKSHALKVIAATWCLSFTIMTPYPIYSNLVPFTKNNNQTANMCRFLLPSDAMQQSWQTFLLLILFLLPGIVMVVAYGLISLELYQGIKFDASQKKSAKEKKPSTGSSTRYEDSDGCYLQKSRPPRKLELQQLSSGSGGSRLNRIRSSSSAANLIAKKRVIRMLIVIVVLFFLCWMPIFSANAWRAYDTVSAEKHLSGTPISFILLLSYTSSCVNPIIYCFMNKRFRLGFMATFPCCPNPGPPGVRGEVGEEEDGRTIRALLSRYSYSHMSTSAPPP
Compound `Cc1cccc(NC(=O)NC2N=C(C3CCC3)c3ccccc3N(C)C2=O)c1` (stereo not drawn) has an IC50 of 402 nM. For `Cc1cccc(NC(=O)NC2N=C(C3CCCC3)c3ccccc3N(C)C2=O)c1` (stereo not drawn), the IC50 was 27.1 nM. `Cc1cccc(NC(=O)N[C@@H]2N=C(c3ccccc3)c3ccccc3N(C)C2=O)c1` [L-365260] showed an IC50 of 736 nM.
